Measured values reported in ChEMBL document CHEMBL1201862, “PubChem BioAssay data set” (2004).
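96-well plates; 48 h exposure; 5 concentrations. Endpoints by linear interpolation between flanking doses. Not reached: highest tested concentration assigned. Abbreviation: GI50, concentration required for 50% inhibition of growth.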 Calls of active or inactive are those of the source. Rule as the data show it: active = GI50 up to about 1.1 µM and inactive = higher.

What was measured:
Assay in all cases: DTP human tumour cell line panel, 48 h
EKVX = system: EKVX
PC-3 = system: PC-3
NCI-H23 = system: NCI-H23
NCI/ADR-RES = system: NCI/ADR-RES
NCI-H522 = system: NCI-H522
M14 = system: M14
CAKI-1 = system: CAKI-1
K562 = system: K562
UACC-62 = system: UACC-62
A549 = system: A549
HCT-15 = system: HCT-15
SF-295 = system: SF-295
NCI-H226 = system: NCI-H226
HL-60 = system: HL-60
OVCAR-5 = system: OVCAR-5
MOLT-4 = system: MOLT-4
SK-OV-3 = system: SK-OV-3
KM12 = system: KM12
CCRF-CEM = system: CCRF-CEM
NCI-H460 = system: NCI-H460

Row | SMILES | GI50 (EKVX) | GI50 (PC-3) | GI50 (NCI-H23) | GI50 (NCI/ADR-RES) | GI50 (NCI-H522) | GI50 (M14) | GI50 (CAKI-1) | GI50 (K562) | GI50 (UACC-62) | GI50 (A549) | GI50 (HCT-15) [µM] | GI50 (SF-295) | GI50 (NCI-H226) | GI50 (HL-60) | GI50 (OVCAR-5) | GI50 (MOLT-4) | GI50 (SK-OV-3) | GI50 (KM12) | GI50 (CCRF-CEM) | GI50 (NCI-H460)
1 | O=C(O)c1nc2nc(Cl)c(Cl)nc2[nH]1 | > 100 µM (inactive) | > 100 µM (inactive) | > 100 µM (inactive) | > 100 µM (inactive) | > 100 µM (inactive) | > 100 µM (inactive) | > 100 µM (inactive) | > 100 µM (inactive) | > 100 µM (inactive) | > 100 µM (inactive) | > 100 | > 100 µM (inactive) | > 100 µM (inactive) | > 100 µM (inactive) | > 100 µM (inactive) | > 100 µM (inactive) | > 100 µM (inactive) | > 100 µM (inactive) | > 100 µM (inactive) | > 100 µM (inactive)
2 | NS(=O)(=O)c1ccc(N=C2C(=O)Nc3ccccc32)cc1 | > 100 µM (inactive) | > 100 µM (inactive) | > 100 µM (inactive) | > 100 µM (inactive) | 70.8 µM (inactive) | > 100 µM (inactive) | > 100 µM (inactive) | 65.8 µM (inactive) | > 100 µM (inactive) | > 100 µM (inactive) | > 100 | > 100 µM (inactive) | > 100 µM (inactive) | > 100 µM (inactive) | > 100 µM (inactive) | > 100 µM (inactive) | > 100 µM (inactive) | > 100 µM (inactive) | 55.8 µM (inactive) | > 100 µM (inactive)
3 | Cc1ccc(NC(c2ccccc2)P(=O)(c2ccccc2)c2ccccc2)cc1 (centres undefined) | > 100 µM (inactive) | > 100 µM (inactive) | > 100 µM (inactive) | > 100 µM (inactive) | > 100 µM (inactive) | > 100 µM (inactive) | > 100 µM (inactive) | 34.4 µM (inactive) | > 100 µM (inactive) | > 100 µM (inactive) | > 100 | 29.9 µM (inactive) | > 100 µM (inactive) | 34 µM (inactive) | > 100 µM (inactive) | > 100 µM (inactive) | > 100 µM (inactive) | > 100 µM (inactive) | > 10 µM (inactive) | > 100 µM (inactive)
4 | CCOC(=O)NC(Nc1ccc(S(=O)(=O)Nc2ncccn2)cc1)(C(=O)OCC)C(F)(F)F (centres undefined) | > 100 µM (inactive) | > 100 µM (inactive) | > 100 µM (inactive) | > 100 µM (inactive) | > 100 µM (inactive) | > 100 µM (inactive) | > 100 µM (inactive) | > 100 µM (inactive) | > 100 µM (inactive) | > 100 µM (inactive) | > 100 | > 100 µM (inactive) | > 100 µM (inactive) | > 100 µM (inactive) | > 100 µM (inactive) | > 100 µM (inactive) | > 100 µM (inactive) | > 100 µM (inactive) | > 100 µM (inactive) | > 100 µM (inactive)
5 | CNC(=S)NNc1ncnc2c1c(-c1ccc(Cl)cc1)cn2-c1ccc(C)cc1 | 13.8 µM (inactive) | 5.45 µM (inactive) | 13.2 µM (inactive) | 11.6 µM (inactive) | 7.76 µM (inactive) | 12.6 µM (inactive) | 8.07 µM (inactive) | 3.2 µM (inactive) | 14.5 µM (inactive) | 4.67 µM (inactive) | 8.39 | 6.05 µM (inactive) | 24.6 µM (inactive) | 2.81 µM (inactive) | 14.7 µM (inactive) | 3.85 µM (inactive) | 15 µM (inactive) | 7.71 µM (inactive) | 0.897 µM (active) | 1.95 µM (inactive)
6 | COc1cccc(NC(=O)c2c(N)n[nH]c2SC)c1 | > 100 µM (inactive) | > 100 µM (inactive) |  | > 100 µM (inactive) | > 100 µM (inactive) | > 100 µM (inactive) | > 100 µM (inactive) | > 100 µM (inactive) | > 100 µM (inactive) | > 100 µM (inactive) | > 100 | > 100 µM (inactive) | > 100 µM (inactive) | > 100 µM (inactive) | > 100 µM (inactive) | > 100 µM (inactive) | > 100 µM (inactive) | > 100 µM (inactive) | > 100 µM (inactive) | > 100 µM (inactive)
7 | CC(C)O/N=C/c1cc(NC(=S)OC(C)C)ccc1Cl | 19.1 µM (inactive) | 36.8 µM (inactive) | 43.9 µM (inactive) | 35.5 µM (inactive) | 26 µM (inactive) | 62.7 µM (inactive) | 22.9 µM (inactive) | 29.4 µM (inactive) | 29.7 µM (inactive) | 35.4 µM (inactive) | 36.9 | 25.2 µM (inactive) | 28.8 µM (inactive) | 20.4 µM (inactive) | 48.6 µM (inactive) | 15.8 µM (inactive) | 38.8 µM (inactive) | 50.9 µM (inactive) | 13.5 µM (inactive) | 42.3 µM (inactive)
8 | O=C(c1ccc([N+](=O)[O-])cc1)C(Br)C(Br)c1ccnc2ccccc12 (centres undefined) | 8.79 µM (inactive) | 7.29 µM (inactive) | 2.55 µM (inactive) | 8.45 µM (inactive) | 1.86 µM (inactive) | 2.8 µM (inactive) | 12.2 µM (inactive) | 2.83 µM (inactive) | 9.4 µM (inactive) | 8.28 µM (inactive) | 6.76 | 9.06 µM (inactive) | 10.9 µM (inactive) | 2.8 µM (inactive) | 16.5 µM (inactive) | 2.94 µM (inactive) | 17.8 µM (inactive) | 1.91 µM (inactive) | 0.352 µM (active) | 4.5 µM (inactive)
9 | Cc1ccc(NC(S)=Nc2c(C)n(C)n(-c3ccccc3)c2=O)cc1 | > 100 µM (inactive) | > 100 µM (inactive) | > 100 µM (inactive) | > 100 µM (inactive) | > 100 µM (inactive) | > 100 µM (inactive) | > 100 µM (inactive) | > 100 µM (inactive) | > 100 µM (inactive) | > 100 µM (inactive) | > 100 | > 100 µM (inactive) | > 100 µM (inactive) | 32.2 µM (inactive) | > 100 µM (inactive) | 87.9 µM (inactive) | > 100 µM (inactive) | > 100 µM (inactive) | > 100 µM (inactive) | > 100 µM (inactive)
10 | N#CC(NNC(=O)Cc1ccccc1)c1ccccc1O (centres undefined) | 8.41 µM (inactive) | 5.79 µM (inactive) | 9.23 µM (inactive) | 3.93 µM (inactive) | 4.88 µM (inactive) | 10.5 µM (inactive) | 12.6 µM (inactive) | 11.3 µM (inactive) | 5.28 µM (inactive) | 10.3 µM (inactive) | 4.25 | 9.68 µM (inactive) | 17.3 µM (inactive) | 3.35 µM (inactive) | 26.9 µM (inactive) | 3.72 µM (inactive) | 14.5 µM (inactive) | 11.6 µM (inactive) | 4 µM (inactive) | 6.84 µM (inactive)
